According to PubChem BioAssay AID1918940 (Molecular Pharmacology Branch, DTP, NCI, 2023):

Test system: NCI-H211 complex spheroid viability
Assay: Anticancer human tumor NCI-H211 cell line growth inhibition [LSD1];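 further: luminescent viability read after seven days of drug exposure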;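 on viability, T/C: 100% = DMSO vehicle control viability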
Details: for IC50: curve of first compound; for viability, T/C: stronger effect = lower value
Method in brief: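 Complex spheroids of tumor cells with HUVEC and human MSCs, exposed to iadademstat combined with other agents. Each agent tested in half-log steps from near clinical Cmax (else 10 microM top), DMSO ≤0.25%.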

[1] = second compound 0.1 µM, first compound 0.00316 µM
[2] = second compound 0.1 µM, first compound 0.01 µM
[3] = second compound 0.1 µM, first compound 0.0316 µM
[4] = second compound 0.1 µM, first compound 0.1 µM
[5] = second compound 0.1 µM, first compound 0.316 µM
[6] = second compound 0.1 µM, first compound 1 µM
[7] = second compound 0.316 µM, first compound 0.00316 µM
[8] = second compound 0.316 µM, first compound 0.01 µM
[9] = second compound 0.316 µM, first compound 0.0316 µM
[10] = second compound 0.316 µM, first compound 0.1 µM
[11] = second compound 0.316 µM, first compound 0.316 µM
[12] = second compound 0.316 µM, first compound 1 µM
[13] = second compound 1 µM, first compound 0.00316 µM
[14] = second compound 1 µM, first compound 0.01 µM
[15] = second compound 1 µM, first compound 0.0316 µM
[16] = second compound 1 µM, first compound 0.1 µM
[17] = second compound 1 µM, first compound 0.316 µM
[18] = second compound 1 µM, first compound 1 µM
[19] = second compound 3.16 µM, first compound 0.00316 µM
[20] = second compound 3.16 µM, first compound 0.01 µM
[21] = second compound 3.16 µM, first compound 0.0316 µM
[22] = second compound 3.16 µM, first compound 0.1 µM
[23] = second compound 3.16 µM, first compound 0.316 µM
[24] = second compound 3.16 µM, first compound 1 µM
[25] = second compound 10 µM, first compound 0.00316 µM
[26] = second compound 10 µM, first compound 0.01 µM
[27] = second compound 10 µM, first compound 0.0316 µM
[28] = second compound 10 µM, first compound 0.1 µM
[29] = second compound 10 µM, first compound 0.316 µM
[30] = second compound 10 µM, first compound 1 µM

O=C(C=Cn1cnc(-c2cc(C(F)(F)F)cc(C(F)(F)F)c2)n1)NNc1cnccn1 + NC1CC1c1ccc(-c2cccc(O)c2)cc1
IC50 (second compound 0.1 µM): < 3.16 nM
IC50 (second compound 0.316 µM): < 3.16 nM
IC50 (second compound 1 µM): < 3.16 nM
IC50 (second compound 3.16 µM): < 3.16 nM
IC50 (second compound 10 µM): < 3.16 nM
viability, T/C [1]: 45.6%
viability, T/C [2]: 35.5%
viability, T/C [3]: 16.3%
viability, T/C [4]: 6.54%
viability, T/C [5]: 2.54%
viability, T/C [6]: 2.3%
viability, T/C [7]: 29.8%
viability, T/C [8]: 29%
viability, T/C [9]: 14.4%
viability, T/C [10]: 6.98%
viability, T/C [11]: 2.61%
viability, T/C [12]: 2.22%
viability, T/C [13]: 38.4%
viability, T/C [14]: 32.6%
viability, T/C [15]: 12.8%
viability, T/C [16]: 6.89%
viability, T/C [17]: 3.1%
viability, T/C [18]: 2.61%
viability, T/C [19]: 47.7%
viability, T/C [20]: 29.5%
viability, T/C [21]: 16.6%
viability, T/C [22]: 7.35%
viability, T/C [23]: 3.74%
viability, T/C [24]: 2.99%
viability, T/C [25]: 40.6%
viability, T/C [26]: 28.6%
viability, T/C [27]: 17.8%
viability, T/C [28]: 9.12%
viability, T/C [29]: 3.24%
viability, T/C [30]: 3.79%

COc1cc(C2c3cc4c(cc3C(OC3OC5COC(C)OC5C(O)C3O)C3COC(=O)C23)OCO4)cc(OC)c1O (stereo not given) + NC1CCC(NC2CC2c2ccccc2)CC1
IC50 (second compound 0.1 µM): 9.89 nM
IC50 (second compound 0.316 µM): 9.92 nM
IC50 (second compound 1 µM): < 9.49 nM
IC50 (second compound 3.16 µM): < 9.49 nM
IC50 (second compound 10 µM): < 9.49 nM
viability, T/C (second compound 0.1 µM, first compound 0.00949 µM): 51.4%
viability, T/C (second compound 0.1 µM, first compound 0.03 µM): 14.5%
viability, T/C (second compound 0.1 µM, first compound 0.0949 µM): 2.21%
viability, T/C (second compound 0.1 µM, first compound 0.3 µM): 5.34%
viability, T/C (second compound 0.1 µM, first compound 0.949 µM): 1.9%
viability, T/C (second compound 0.1 µM, first compound 3 µM): 2.19%
viability, T/C (second compound 0.316 µM, first compound 0.00949 µM): 51.7%
viability, T/C (second compound 0.316 µM, first compound 0.03 µM): 12.7%
viability, T/C (second compound 0.316 µM, first compound 0.0949 µM): 1.66%
viability, T/C (second compound 0.316 µM, first compound 0.3 µM): 2.34%
viability, T/C (second compound 0.316 µM, first compound 0.949 µM): 2.35%
viability, T/C (second compound 0.316 µM, first compound 3 µM): 2.14%
viability, T/C (second compound 1 µM, first compound 0.00949 µM): 46.1%
viability, T/C (second compound 1 µM, first compound 0.03 µM): 11.6%
viability, T/C (second compound 1 µM, first compound 0.0949 µM): 2.2%
viability, T/C (second compound 1 µM, first compound 0.3 µM): 2.36%
viability, T/C (second compound 1 µM, first compound 0.949 µM): 2.33%
viability, T/C (second compound 1 µM, first compound 3 µM): 2.08%
viability, T/C (second compound 3.16 µM, first compound 0.00949 µM): 42.2%
viability, T/C (second compound 3.16 µM, first compound 0.03 µM): 10.5%
viability, T/C (second compound 3.16 µM, first compound 0.0949 µM): 2.02%
viability, T/C (second compound 3.16 µM, first compound 0.3 µM): 2.37%
viability, T/C (second compound 3.16 µM, first compound 0.949 µM): 1.62%
viability, T/C (second compound 3.16 µM, first compound 3 µM): 1.85%
viability, T/C (second compound 10 µM, first compound 0.00949 µM): 18.9%
viability, T/C (second compound 10 µM, first compound 0.03 µM): 4.24%
viability, T/C (second compound 10 µM, first compound 0.0949 µM): 0.87%
viability, T/C (second compound 10 µM, first compound 0.3 µM): 0.66%
viability, T/C (second compound 10 µM, first compound 0.949 µM): 0.79%
viability, T/C (second compound 10 µM, first compound 3 µM): 0.69%

Nc1ncn(C2CC(O)C(CO)O2)c(=O)n1 (stereo not given) + NC1CCC(NC2CC2c2ccccc2)CC1
IC50 (second compound 0.1 µM): < 3.16 nM
IC50 (second compound 0.316 µM): < 3.16 nM
IC50 (second compound 1 µM): < 3.16 nM
IC50 (second compound 3.16 µM): < 3.16 nM
IC50 (second compound 10 µM): < 3.16 nM
viability, T/C [1]: 26.7%
viability, T/C [2]: 17.8%
viability, T/C [3]: 7.44%
viability, T/C [4]: 3.11%
viability, T/C [5]: 1.96%
viability, T/C [6]: 1.81%
viability, T/C [7]: 35%
viability, T/C [8]: 16%
viability, T/C [9]: 9.7%
viability, T/C [10]: 2.44%
viability, T/C [11]: 1.9%
viability, T/C [12]: 1.78%
viability, T/C [13]: 33%
viability, T/C [14]: 16.2%
viability, T/C [15]: 7.52%
viability, T/C [16]: 3.4%
viability, T/C [17]: 1.88%
viability, T/C [18]: 1.32%
viability, T/C [19]: 29.3%
viability, T/C [20]: 17.8%
viability, T/C [21]: 6.93%
viability, T/C [22]: 2.47%
viability, T/C [23]: 1.82%
viability, T/C [24]: 1.39%
viability, T/C [25]: 11.7%
viability, T/C [26]: 5.2%
viability, T/C [27]: 2.56%
viability, T/C [28]: 0.89%
viability, T/C [29]: 0.77%
viability, T/C [30]: 0.61%
